Measurements reported in US7138361B2, “Herbicidal heterocycles” (E. I. du Pont de Nemours and Company, priority 2000, dated 2006).

What was measured:
Assay in all cases: Test C preemergence
Type in all cases: in vivo
Sunflower = settings: scale 0 to 100, 0 no effect, 100 complete control
[1] = system: cocklebur (Xanthium strumarium); settings: for Plant response rating (0 to 100), Cocklebur: visual evaluation after 12 to 14 days
From the text: (§1) Seeds of plant species selected from bermudagrass (Cynodon dactylon), Surinam grass (Brachiaria decumbens), cocklebur (Xanthium strumarium), corn (Zea mays), crabgrass (Digitaria sanguinalis), woolly cupgrass (Eriochloa villosa), giant foxtail (Setaria faberii), goosegrass (Eleusine indica), johnsongrass (Sorghum halepense), kochia (Kochia scoparia), lambsquarters (Chenopodium album), morningglory (Ipomoea hederacea), yellow nutsedge (Cyperus esculentus), pigweed (Amaranthus retroflexus), common ragweed (Ambrosia elatior), soybean (Glycine max) and velvetleaf (Abutilon theophrasti) were planted and treated preemergence with test chemicals formulated in a non-phytotoxic solvent mixture which included a surfactant.
(§2) At the same time, plants selected from these crop and weed species and also winter barley (Hordeum vulgare), blackgrass (Alopecurus myosuroides), canary grass (Phalaris minor), chickweed (Stellaria media), downy brome (Bromus tectorum), green foxtail (Setaria viridis), Italian ryegrass (Lolium multiflorum), wheat (Triticum aestivum), wild oat (Avena fatua) and windgrass (Apera spica-venti) were treated with postemergence applications of some of the test chemicals formulated in the same manner. Plants ranged in height from 2 to 18 cm (1- to 4-leaf stage) for postemergence treatments. Plant species in the flooded paddy test consisted of rice (Oryza saliva), smallflower flatsedge (Cyperus difformis), duck salad (Heteranthera limosa) and barnyardgrass (Echinochloa crus-galli) grown to the 2-leaf stage for testing. Treated plants and controls were maintained in a greenhouse for 12 to 14 days, after which time all species were compared to controls and visually evaluated. Plant response ratings, summarized in Table C, are based on a scale of 0 to 100 where 0 is no effect and 100 is complete control. A dash (-) response means no test result.

[2] = system: common ragweed (Ambrosia elatior); settings: preemergence
From the text: as §1, §2

[3] = system: pigweed (Amaranthus retroflexus); settings: preemergence
From the text: as §1, §2

corn (Zea mays) = settings: for Plant response rating (0 to 100), Corn: visual evaluation after 12 to 14 days
From the text: as §1, §2

Nightshade = system: Nightshade
From the text: as §1, §2

[4] = system: Surinam grass (Brachiaria decumbens); settings: for Plant response rating (0 to 100), Surinam grass: visual evaluation after 12 to 14 days
From the text: as §1, §2

kochia (Kochia scoparia) = settings: for Plant response rating (0 to 100), Kochia: visual evaluation after 12 to 14 days
From the text: as §1, §2

[5] = system: yellow nutsedge (Cyperus esculentus)
From the text: as §1, §2

[6] = system: giant foxtail (Setaria faberii); settings: for Plant response rating (0 to 100), Foxtail, Giant: visual evaluation after 12 to 14 days
From the text: as §1, §2

soybean (Glycine max) = settings: preemergence
From the text: as §1, §2

[7] = system: velvetleaf (Abutilon theophrasti); settings: preemergence
From the text: as §1, §2

[8] = system: lambsquarters (Chenopodium album); settings: for Plant response rating, Lambsquarters: scale 0 to 100, 0 no effect, 100 complete control
From the text: as §1, §2

[9] = system: crabgrass (Digitaria sanguinalis); settings: for Plant response rating (0 to 100), Crabgrass: visual evaluation after 12 to 14 days
From the text: as §1, §2

[10] = system: morningglory (Ipomoea hederacea)
From the text: as §1, §2

[11] = system: goosegrass (Eleusine indica); settings: for Plant response rating (0 to 100), Goosegrass: visual evaluation after 12 to 14 days
From the text: as §1, §2

[12] = system: woolly cupgrass (Eriochloa villosa); settings: for Plant response rating (0 to 100), Cupgrass, Woolly: visual evaluation after 12 to 14 days
From the text: as §1, §2

[13] = system: bermudagrass (Cynodon dactylon); settings: for Plant response rating (0 to 100 where 0 is no effect and 100 is complete control), Bermudagrass: visual evaluation after 12 to 14 days
From the text: as §1, §2

[14] = system: johnsongrass (Sorghum halepense); settings: for Plant response rating (0 to 100), Johnsongrass: visual evaluation after 12 to 14 days
From the text: as §1, §2

[15] = Rate 62 g/ha, scale 0 to 100, 0 no effect, 100 complete control
[16] = preemergence, Rate 31 g/ha, scale 0 to 100
[17] = preemergence, Rate 125 g/ha, scale 0 to 100, 0 no effect, 100 complete control
[18] = Rate 500 g/ha, visual evaluation after 12 to 14 days
[19] = Rate 125 g/ha, scale 0 to 100, 0 no effect, 100 complete control
[20] = Rate 250 g/ha, scale 0 to 100, 0 no effect, 100 complete control
[21] = preemergence, Rate 500 g/ha, visual evaluation after 12 to 14 days
[22] = preemergence, Rate 250 g/ha, scale 0 to 100, 0 no effect, 100 complete control

CC(C)Oc1cccc(N2CCC(n3ccc(C(C)(C)C)n3)C2=O)c1 (centres unmarked) [Compound 70]
Plant response rating, Sunflower (Sunflower; Rate 125 g/ha): 20
Plant response rating, Sunflower (Sunflower; Rate 250 g/ha): 60
Plant response rating, Cocklebur [1, 15]: 0
Plant response rating, Cocklebur [1, 16]: 0
Plant response rating (0 to 100), Cocklebur ([1]; preemergence, Rate 250 g/ha): 0
Plant response rating (0 to 100), Cocklebur ([1]; preemergence, Rate 500 g/ha): 20
Plant response rating, Cocklebur [1, 17]: 0
Plant response rating, Ragweed, Common ([2]; Rate 31 g/ha, scale 0 to 100): 0
Plant response rating (0 to 100), Ragweed, Common [2, 18]: 100
Plant response rating, Ragweed, Common [2, 19]: 60
Plant response rating, Ragweed, Common [2, 20]: 80
Plant response rating, Pigweed ([3]; Rate 31 g/ha, scale 0 to 100): 0
Plant response rating (0 to 100), Pigweed [3, 18]: 100
Plant response rating, Pigweed [3, 19]: 20
Plant response rating, Pigweed [3, 20]: 0
Plant response rating, Corn (corn (Zea mays); [15]): 0
Plant response rating, Corn (corn (Zea mays); [16]): 0
Plant response rating (0 to 100), Corn (corn (Zea mays); preemergence, Rate 250 g/ha): 0
Plant response rating (0 to 100), Corn (corn (Zea mays); preemergence, Rate 500 g/ha): 20
Plant response rating, Corn (corn (Zea mays); [17]): 0
Plant response rating, Nightshade (Nightshade; Rate 31 g/ha, scale 0 to 100): 20
Plant response rating, Nightshade (Nightshade; [15]): 30
Plant response rating, Nightshade (Nightshade; [19]): 50
Plant response rating, Nightshade (Nightshade; [20]): 70
Plant response rating, Surinam grass [4, 15]: 60
Plant response rating, Surinam grass [4, 16]: 20
Plant response rating (0 to 100), Surinam grass ([4]; preemergence, Rate 250 g/ha): 70
Plant response rating (0 to 100), Surinam grass ([4]; preemergence, Rate 500 g/ha): 80
Plant response rating, Surinam grass [4, 17]: 70
Plant response rating, Kochia (kochia (Kochia scoparia); [15]): 80
Plant response rating, Kochia (kochia (Kochia scoparia); [16]): 0
Plant response rating (0 to 100), Kochia (kochia (Kochia scoparia); preemergence, Rate 250 g/ha): 100
Plant response rating (0 to 100), Kochia (kochia (Kochia scoparia); preemergence, Rate 500 g/ha): 100
Plant response rating, Kochia (kochia (Kochia scoparia); [17]): 90
Plant response rating, Nutsedge [5, 15]: 0
Plant response rating, Nutsedge [5, 16]: 0
Plant response rating (0 to 100), Nutsedge [5, 21]: 0
Plant response rating, Nutsedge [5, 17]: 0
Plant response rating, Nutsedge [5, 22]: 0
Plant response rating, Foxtail, Giant [6, 15]: 100
Plant response rating, Foxtail, Giant [6, 16]: 0
Plant response rating (0 to 100), Foxtail, Giant ([6]; preemergence, Rate 250 g/ha): 100
Plant response rating (0 to 100), Foxtail, Giant ([6]; preemergence, Rate 500 g/ha): 100
Plant response rating, Foxtail, Giant [6, 17]: 100
Plant response rating, Soybean (soybean (Glycine max); Rate 31 g/ha, scale 0 to 100): 0
Plant response rating (0 to 100), Soybean (soybean (Glycine max); [18]): 20
Plant response rating, Soybean (soybean (Glycine max); [19]): 10
Plant response rating, Soybean (soybean (Glycine max); [20]): 20
Plant response rating, Velvetleaf ([7]; Rate 31 g/ha, scale 0 to 100): 0
Plant response rating (0 to 100), Velvetleaf [7, 18]: 10
Plant response rating, Velvetleaf [7, 19]: 0
Plant response rating, Velvetleaf [7, 20]: 0
Plant response rating, Lambsquarters ([8]; Rate 62 g/ha): 100
Plant response rating (0 to 100), Lambsquarters [8, 21]: 100
Plant response rating, Lambsquarters ([8]; preemergence, Rate 125 g/ha): 100
Plant response rating, Lambsquarters ([8]; preemergence, Rate 250 g/ha): 100
Plant response rating, Crabgrass [9, 15]: 100
Plant response rating, Crabgrass [9, 16]: 30
Plant response rating (0 to 100), Crabgrass ([9]; preemergence, Rate 250 g/ha): 100
Plant response rating (0 to 100), Crabgrass ([9]; preemergence, Rate 500 g/ha): 100
Plant response rating, Crabgrass [9, 17]: 100
Plant response rating, Morningglory [10, 15]: 20
Plant response rating, Morningglory [10, 16]: 0
Plant response rating (0 to 100), Morningglory [10, 21]: 40
Plant response rating, Morningglory [10, 17]: 0
Plant response rating, Morningglory [10, 22]: 0
Plant response rating, Goosegrass [11, 15]: 90
Plant response rating, Goosegrass [11, 16]: 30
Plant response rating (0 to 100), Goosegrass ([11]; preemergence, Rate 250 g/ha): 100
Plant response rating (0 to 100), Goosegrass ([11]; preemergence, Rate 500 g/ha): 100
Plant response rating, Goosegrass [11, 17]: 100
Plant response rating, Cupgrass, Woolly [12, 15]: 70
Plant response rating, Cupgrass, Woolly [12, 16]: 0
Plant response rating (0 to 100), Cupgrass, Woolly ([12]; preemergence, Rate 250 g/ha): 100
Plant response rating (0 to 100), Cupgrass, Woolly ([12]; preemergence, Rate 500 g/ha): 100
Plant response rating, Cupgrass, Woolly [12, 17]: 100
Plant response rating, Bermudagrass [13, 15]: 100
Plant response rating, Bermudagrass [13, 16]: 80
Plant response rating (0 to 100 where 0 is no effect and 100 is complete control), Bermudagrass ([13]; preemergence, Rate 250 g/ha): 100
Plant response rating (0 to 100 where 0 is no effect and 100 is complete control), Bermudagrass ([13]; preemergence, Rate 500 g/ha): 100
Plant response rating, Bermudagrass [13, 17]: 100
Plant response rating, Johnsongrass [14, 15]: 0
Plant response rating, Johnsongrass [14, 16]: 0
Plant response rating (0 to 100), Johnsongrass ([14]; preemergence, Rate 250 g/ha): 50
Plant response rating (0 to 100), Johnsongrass ([14]; preemergence, Rate 500 g/ha): 70
Plant response rating, Johnsongrass [14, 17]: 10
